# Data: US20250289789A1, “REVERSIBLE LYSINE COVALENT MODIFIERS OF CDK2 AND USES THEREOF” (Terremoto Biosciences, Inc., priority 2023, published 2025)
# Read-outs that look alike come from different tables or passages of the source.
# Experiments:
# Type in all cases: cell-based
# [1] = molecular target: T1, CDK2-NanoLuc fusion with CCNE1 in 293T or 293 cells (Homo sapiens, UniProt P24941); test: NanoBRET Target Engagement (TE) Intracellular Kinase Assay, CDK2/CCNE1; settings: NanoBRET TE intracellular kinase assay, 2-hour incubation, read-out: NanoBRET-CDK2/E1 IC50
# T1 construct: host or cells: 293T (ATCC CRL-3216) or 293 (ATCC CRL-1573)
# Description: (§1) Inhibitory effects of compounds were measured in NanoBRET TE Intracellular Kinase Assay. […] Cells were co-transfected with 1 μg/mL of CDK-NanoLuc Fusion Vector (Promega; NV2701 for CDK1, NV2781 for CDK2, NV2811 for CDK4, NV2841 for CDK6) and 1 μg/mL of the corresponding Cyclin Expression Vector (Promega; NV2601 for CCNB1, NV2641 for CCNE1, NV2621 for CCND1, NV2631 for CCND3) using FuGENE HD Transfection Reagent (Promega; E2311). […] 20 uL/well of 3× Intracellular TE Nano-Glo Substrate/Inhibitor (Promega; N2162) were added to 384-well plates and incubated for 3 minutes at room temperature. NanoBRET signals (donor emission wavelength at 450 nm, acceptor emission wavelength at 610 nm) were measured using Envision plate reader (PerkinElmer). NanoBRET ratio was calculated by: BRET Ratio=raw signal for acceptor/raw signal for donor. Dose response curve normalized to DMSO control was plotted using four-parameter logistic model for IC50 calculation.
# [2] = molecular target: T2, CDK4-NanoLuc fusion with CCND1 in 293T or 293 cells (Homo sapiens, UniProt P11802); test: NanoBRET Target Engagement (TE) Intracellular Kinase Assay, CDK4/CCND1; settings: NanoBRET TE intracellular kinase assay, 2-hour incubation, read-out: NanoBRET-CDK4/D1 IC50
# T2 construct: host or cells: 293T (ATCC CRL-3216) or 293 (ATCC CRL-1573)
# Description: as §1
# [3] = test system: Phospho-Rb Ser807/811 in OVCAR3 cells; test: OVCAR3 Phospho-Rb Ser807/811 HTRF assay; settings: OVCAR3 cells, Phospho-Rb Ser807/811 HTRF, 1 hour incubation, read-out: pRb-OVCAR3 IC50
# Description: Cells were trypsinized and resuspended in 1 mM hydroxyurea (Sigma; H8627), 90% RPMI and 10% fetal bovine serum. […] Dose response curve normalized to DMSO control was plotted using four-parameter logistic model for IC50 calculation.
# T2 sequence (P11802 whole entry, the tested form may be a part): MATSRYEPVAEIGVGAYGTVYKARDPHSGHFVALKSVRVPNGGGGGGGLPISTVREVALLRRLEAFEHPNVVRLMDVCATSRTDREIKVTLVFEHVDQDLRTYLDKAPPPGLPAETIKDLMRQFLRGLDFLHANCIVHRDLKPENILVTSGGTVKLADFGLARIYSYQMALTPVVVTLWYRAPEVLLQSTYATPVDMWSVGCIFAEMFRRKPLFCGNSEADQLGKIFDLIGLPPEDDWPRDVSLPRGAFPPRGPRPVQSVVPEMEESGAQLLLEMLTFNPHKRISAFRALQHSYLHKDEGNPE
# T2 sequence (P24385 whole entry partner, the tested form may be a part): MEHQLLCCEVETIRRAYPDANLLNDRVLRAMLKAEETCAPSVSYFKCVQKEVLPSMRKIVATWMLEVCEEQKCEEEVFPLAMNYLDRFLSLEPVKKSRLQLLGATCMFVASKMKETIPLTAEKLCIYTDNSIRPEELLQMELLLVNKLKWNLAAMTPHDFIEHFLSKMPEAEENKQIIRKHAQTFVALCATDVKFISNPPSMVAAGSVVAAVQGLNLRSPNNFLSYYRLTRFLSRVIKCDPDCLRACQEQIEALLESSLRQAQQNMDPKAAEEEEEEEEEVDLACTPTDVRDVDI
Structure (SMILES),IC50 [1] [nM],IC50 [2] [µM],"IC50 ([3]; Homo sapiens, OVCAR-3, 1 h) [nM]",IC50 [3] [nM]
COc1cc(O)c(C=O)c(OCC(=O)Nc2cc([C@H]3CC[C@@H](OC(=O)NCC(F)F)C3)[nH]n2)c1 [Compound 142],3.76,7.02,53.3,–
"CNN(C)C(=O)O[C@@H]1CC[C@H](c2cc(NC(=O)COc3cc(OC)cc(O)c3C=O)n[nH]2)C1 [Compound 279, (1R,3S)-3-(3-(2-(2-formyl-3-hydroxy-5-methoxyphenoxy)acetamido)-1H-pyrazol-5-yl)cyclopentyl 1,2-dimethylhydrazine-1-carboxylate]",4.32,> 10,63.9,–
COc1cc(O)c(C=O)c(OCC(=O)Nc2cc([C@H]3CC[C@@H](OC(=O)NC4(C#N)CCC4)C3)[nH]n2)c1 [Compound 148],6.97,4.25,113,–
COc1cc(O)c(C=O)c(OCC(=O)Nc2cc([C@H]3CC[C@@H](OC(=O)N[C@@H](C)CF)C3)[nH]n2)c1 [Compound 120],2.64,2.97,13.4,–
COc1cc(O)c(C=O)c(OCC(=O)Nc2cc([C@H]3CC[C@@H](OC(=O)N4C[C@H](F)[C@@H]4C)C3)[nH]n2)c1 [Compound 122],1.99,1.31,20.9,–
"COc1cc(O)c(C=O)c2c1CC(C(=O)Nc1cc([C@H]3CC[C@@H](OC(=O)N4CCCN4C)C3)[nH]n1)C2 (single isomer, unassigned) [Compound 262, (1R,3S)-3-(3-((*)-4-formyl-5-hydroxy-7-methoxy-2,3-dihydro-1H-indene-2-carboxamido)-1H-pyrazol-5-yl)cyclopentyl 2-methylpyrazolidine-1-carboxylate]",4.42,5.08,–,51.8
COc1cc(O)c(C=O)c(OCC(=O)Nc2cc([C@H]3CC[C@@H](OC(=O)N[C@H]4C[C@@H](C#N)C4)C3)[nH]n2)c1 [Compound 138],4.71,5.86,80.6,–
"CC1(NC(=O)O[C@@H]2CC[C@H](c3cc(Nc4nccc5c(C=O)c(O)ccc45)n[nH]3)C2)CC1 [Compound 261, (1R,3S)-3-(3-((5-formyl-6-hydroxyisoquinolin-1-yl)amino)-1H-pyrazol-5-yl)cyclopentyl (1-methylcyclopropyl)carbamate]",4.7,4.1,51,–
O=Cc1c(O)cc(F)cc1OCC(=O)Nc1cc([C@H]2CC[C@@H](OC(=O)N3C4COCC3C4)C2)[nH]n1 [Compound 192],24,5.91,88,–
COc1cc(O)c(C=O)c(OCC(=O)Nc2cc([C@H]3CC[C@@H](OC(=O)N4CC5CC(C4)N5C)C3)[nH]n2)c1 [Compound 189],159,> 10,198,–
"COc1cc(O)c(C=O)c2c1CC(C(=O)Nc1cc([C@H]3CC[C@@H](OC(=O)NN(C)C)C3)n[nH]1)C2 (single isomer, unassigned) [Compound 268, (1R,3S)-3-(3-((*)-4-formyl-5-hydroxy-7-methoxy-2,3-dihydro-1H-indene-2-carboxamido)-1H-pyrazol-5-yl)cyclopentyl 2,2-dimethylhydrazine-1-carboxylate]",10.8,4.94,–,85.9
COc1cc(O)c(C=O)c(OCC(=O)Nc2cc([C@H]3CC[C@@H](OC(=O)N4CC(N(C)C)C4)C3)[nH]n2)c1 [Compound 187],18.4,> 10,65.3,–
COc1cc(O)c(C=O)c(O[C@H](C)C(=O)Nc2cc([C@H]3C[C@@H](OC(=O)N4C5COCC4C5)C3)[nH]n2)c1 [Compound 193],11.6,> 10,84.7,–
COc1cc(O)c(C=O)c(OCC(=O)Nc2cc([C@H]3CC[C@@H](OC(=O)N(C)CC(F)F)C3)[nH]n2)c1 [Compound 121],1.99,2.44,18.5,–
COc1cc(O)c(C=O)c(OCC(=O)Nc2cc([C@H]3CC[C@@H](OC(=O)NC(C)(C)C#N)C3)[nH]n2)c1 [Compound 159],10.6,4.84,43.1,–
"COc1cc(O)c(C=O)c2c1CC(C(=O)Nc1cc([C@H]3CC[C@@H](OC(=O)NN(C)C)C3)n[nH]1)C2 (single isomer, unassigned) [Compound 269, (1R,3S)-3-(3-((*)-4-formyl-5-hydroxy-7-methoxy-2,3-dihydro-1H-indene-2-carboxamido)-1H-pyrazol-5-yl)cyclopentyl 2,2-dimethylhydrazine-1-carboxylate]",67.7,0.459,–,2230

# Results, then the compound that gave them:
IC50 [1] [nM],IC50 [2] [µM],"IC50 ([3]; Homo sapiens, OVCAR-3, 1 h) [nM]",IC50 [3] [nM],Structure (SMILES)
7.35,> 10,80.3,–,COc1cc(O)c(C=O)c(OCC(=O)Nc2cc([C@H]3CC[C@@H](OC(=O)NN(C)C)C3)[nH]n2)c1 [Compound 160]
9.88,2.38,40.9,–,COc1cc(O)c(C=O)c(OCC(=O)Nc2cc([C@H]3CC[C@@H](OC(=O)NC4(CC#N)CC4)C3)[nH]n2)c1 [Compound 146]
3.46,4.07,64.3,–,Cc1cc(O)c(C=O)c(OCC(=O)Nc2cc([C@H]3CC[C@@H](OC(=O)NC4(C)CC4)C3)[nH]n2)c1 [Compound 145]
3.88,0.576,17.4,–,"COc1cc(O)c(C=O)c(OCC(=O)Nc2cc([C@H]3CC[C@@H](OC(=O)NC4(C)CC4(F)F)C3)[nH]n2)c1 (single isomer, unassigned) [Compound 280, (1R,3S)-3-(3-(2-(2-formyl-3-hydroxy-5-methoxyphenoxy)acetamido)-1H-pyrazol-5-yl)cyclopentyl ((*)-2,2-difluoro-1-methylcyclopropyl)carbamate]"
21.6,> 10,295,–,COc1cc(O)c(C=O)c(OCC(=O)Nc2cc([C@H]3CC[C@@H](OC(=O)NCc4cnn(C)c4)C3)[nH]n2)c1 [Compound 137]
1.48,5.09,25.6,–,"CCN(CC)N(C)C(=O)O[C@@H]1CC[C@H](c2cc(NC(=O)COc3cc(OC)cc(O)c3C=O)n[nH]2)C1 [Compound 277, (1R,3S)-3-(3-(2-(2-formyl-3-hydroxy-5-methoxyphenoxy)acetamido)-1H-pyrazol-5-yl)cyclopentyl 2,2-diethyl-1-methylhydrazine-1-carboxylate]"
1.96,7.62,44.5,–,COc1cc(O)c(C=O)c(OCC(=O)Nc2cc([C@H]3CC[C@@H](OC(=O)N4CC(F)(F)C4)C3)[nH]n2)c1 [Compound 129]
3.11,5.3,35.7,–,"CCN(NC)C(=O)O[C@@H]1CC[C@H](c2cc(NC(=O)COc3cc(OC)cc(O)c3C=O)n[nH]2)C1 [Compound 275, (1R,3S)-3-(3-(2-(2-formyl-3-hydroxy-5-methoxyphenoxy)acetamido)-1H-pyrazol-5-yl)cyclopentyl 1-ethyl-2-methylhydrazine-1-carboxylate]"
240,3.25,–,> 10000,"COc1cc(O)c(C=O)c2c1CC(C(=O)Nc1cc([C@H]3C[C@@H](OC(=O)N(C)N(C)C)C3)n[nH]1)C2 (single isomer, unassigned) [Compound 271]"
2.27,0.773,22.9,–,CCN(C(=O)O[C@@H]1CC[C@H](c2cc(NC(=O)COc3cc(OC)cc(O)c3C=O)n[nH]2)C1)C(C)C [Compound 169]
10.3,> 10,167,–,COc1cc(O)c(C=O)c(OCC(=O)Nc2cc([C@H]3CC[C@@H](OC(=O)NCc4ccccn4)C3)[nH]n2)c1 [Compound 166]
12.9,3.99,178,–,Cc1cc(O)c(C=O)c(OCC(=O)Nc2cc([C@H]3CC[C@@H](OC(=O)NC4(C#N)CC4)C3)[nH]n2)c1 [Compound 139]
9.62,7.31,75.7,–,COc1cc(O)c(C=O)c(OCC(=O)Nc2cc([C@H]3CC[C@@H](OC(=O)N4CC[C@H]4C#N)C3)[nH]n2)c1 (stereo in doubt) [Compound 126]
1.99,1.98,–,123,"COc1cc(O)c(C=O)c2c1CC(C(=O)Nc1cc([C@H]3CC[C@@H](OC(=O)N4CCCCN4C)C3)[nH]n1)C2 (single isomer, unassigned) [Compound 266, (1R,3S)-3-(3-((*)-4-formyl-5-hydroxy-7-methoxy-2,3-dihydro-1H-indene-2-carboxamido)-1H-pyrazol-5-yl)cyclopentyl 2-methyltetrahydropyridazine-1(2H)-carboxylate]"
1.18,5,27.9,–,CCCCNC(=O)O[C@@H]1CC[C@H](c2cc(NC(=O)COc3cc(OC)cc(O)c3C=O)n[nH]2)C1 [Compound 181]
